Data set [1] concerns the target MyD88 (Homo sapiens, UniProt Q99836). As to the kind of experiment: Comparison of linear 7-mer peptide with and without N-terminal myristoyl group (assay not specified). The note with it: versus linear MyD88 inhibitor 7-mer peptide. An excerpt: The importance of additional moieties to enhance cell penetration is further evaluated. […] Therefore, backbone cyclic peptides with addition of a myristoyl group or other moieties designed to enhance cell penetration are also synthesized and tested for binding, inhibition, stability and permeability.

In data set [2] the target is T1, MyD88 dimerization (Homo sapiens, UniProt Q99836).
T1 construct: constructs encoding HA-tagged full length MyD88 and Flag-tagged full length MyD88; expressed in transfected cells; host or cells: HEK293
T1 sequence (Q99836 whole entry): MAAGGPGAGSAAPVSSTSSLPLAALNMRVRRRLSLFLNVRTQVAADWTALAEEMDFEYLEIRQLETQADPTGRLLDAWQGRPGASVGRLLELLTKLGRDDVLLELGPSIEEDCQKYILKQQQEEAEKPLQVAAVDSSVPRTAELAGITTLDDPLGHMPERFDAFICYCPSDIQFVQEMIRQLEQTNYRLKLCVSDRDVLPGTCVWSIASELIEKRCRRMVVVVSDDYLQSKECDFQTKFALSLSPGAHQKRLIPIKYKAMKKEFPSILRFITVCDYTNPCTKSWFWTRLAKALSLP
As to the kind of experiment: Co-immunoprecipitation of Flag-MyD88 with HA-MyD88 in HEK293 cells. It counts as cell-based. The note with it: HEK293, IL-1 stimulation; 4×4MyDI at 20, 2, 0.2 μM; Myr-4×4MyDI at 0.2 or 2000 nM. The procedure: FIG. 10. 4×4MyDI blocks MyD88 dimerization. HEK293 cells were transfected with two plasmids, one encoding HA-MyD88 and the other encoding FLAG-MyD88 and after 48 hours the cells were either untreated (cont) or treated with 20 μM of the linear MyDI peptide, the scrambled version of the linear MyDI peptide (SEQ ID NO: 5,), or the 4×4MyDI at 20, 2, or 0.2 μM. After 3 h of treatment, cells were stimulated with recombinant human IL-1 (20 ng/ml) for 30 min and then lysed. Whole cell lysates (WCL) were immunoprecipitated with anti-HA beads (Thermo-Scientific) for 30 min and proteins were eluted with glycine Ph 2.0, neutralized, and loaded on an acrylamide gel for analysis. Proteins were transferred to nitrocellulose and the amount of Flag-MyD88 that co-precipitated with HA-MyD88 was detected by immunoblotting (IB) with anti-Flag antibody.
FIGS. 14A and 14B. […] Proteins were transferred to nitrocellulose and the amount of FLAG-MyD88 that co-precipitated with HA-MyD88 was detected by immunoblotting (IB) with anti-FLAG antibody. […] Percent inhibition of co-immunoprecipitation was calculated by comparing densitometry of bands in the treated lanes to control. […]
TLR and IL-1 receptor signaling proceeds through a multimeric protein signaling complex (the “Myddosome”) that is initiated by MyD88 homodimerization. […] Immunoprecipitated protein was eluted and analyzed by immunoblot using an antibody to Flag. […]

The test system of data set [3] is OCI-LY3 (MyD88 L265P) cells. As to the kind of experiment: Proliferation of lymphoma cells (Promega CellTiter viability assay). Format: cell-based, human. As to conditions: 48 h; compared with OCI-LY19 (MyD88 WT). The procedure: FIGS. 18A and 18B. 4×4MyDI and Myr-4×4MyDI block proliferation of Ly3 lymphoma cells that carry the L265P oncogenic mutation in MyD88. Cell lines OCI-LY3 (MyD88^L265P) and OCI-LY19 (MyD88^WT) were grown in RPMI supplemented with 10% FCS. Cells were counted and plated at identical concentrations in triplicate wells of 96 well plates and decreasing concentrations of 4×4MyDI […], or Myr-4×4MyDI (19B), was added to the wells. After 48 h cell viability was tested using the Promega CellTiter viability assay according to the manufacturer's instructions. Percent inhibition was calculated as [(1-OD of well with inhibitor/OD of well without inhibitor)*1001. Negative values in A represent enhanced growth in the presence of the inhibitor.
Genomic DNA was prepared from the human lymphoma cell lines OCI-LY3 (MyD88^L265P) and OCI-LY19 (MyD88^WT) to confirm the presence of the activating L265P mutation in the OCI-Ly3 cells (and the WT sequence in the OCI-Ly19 cells). The MyD88 region was amplified using the forward and reverse primers GGGATATGCTGAACTAAGTTGCCAC (SEQ ID NO: 7) and GACGTGTCTGTGAAGTTGGCATCTC (SEQ ID NO: 8), respectively, as described in Xu, L. et al Blood (2013) 121(11): 2051-2058. The PCR product was sequenced to confirm the mutation.
The cell lines were incubated alone or with increasing concentrations of the 4×4MyDI. […]

The subject of data set [4] is NFkB activation. As to the kind of experiment: NFkB-luciferase reporter in RAW 264.7 macrophages stimulated with LPS. As to conditions: RAW 264.7 NFkB-luc, 4 hours. It counts as cell-based, mouse. On the procedure: FIG. 13. 4×4MyDI and Myr4×4MyDI block NFkB induction in response to LPS stimulation of RAW 264.7 NFkB-luc cells. RAW 264.7 murine macrophages were transfected with an NFkB-luciferase reporter gene and stimulated with LPS in the absence or presence of increasing concentrations of the inhibitors. After 4 hours cells were lysed and luminescence was recorded using a Tecan plate reader. BG denotes background.
In this assay the mouse macrophage RAW264.7 cell line is transfected with an NFkB-luciferase reporter construct and then cells are stimulated by exposure to bacterial LPS and light emission is measured after addition of luciferase substrate.
(Reporter assays use an easily measured gene product as a stand-in for the process of interest.)

Numbered stars: 1 amine (or outer) side, 2 acyl side, 3 side chain; on linkers, the order of the positions; unused ones are H or OH. Bridge positions count the residues as written; N and C are the ends. Square brackets hold non-standard residues; d marks the D form. Ends that are not written are not given here. Peptide text beside a SMILES is read from it. * marks the point of attachment. Myristoyl = CCCCCCCCCCCCCC(=O)*; CO = O=C([*:1])[*:2]; Nlys = NCCCCNCC(=O)O

Chain of MyD88 (Q99836 whole entry, species assumed): as the sequence (Q99836 whole entry) above

Consider `CCCCCCCCCCCCCC(=O)N[C@@H](CCCNC(=N)N)C(=O)N[C@@H](CC(=O)O)C(=O)N[C@H](C(=O)N[C@@H](CC(C)C)C(=O)N1CCC[C@H]1C(=O)NCC(=O)N[C@H](C(=O)O)[C@@H](C)O)C(C)C` (Myristoyl-RDVLPGT-OH; N-terminus and C-terminus assumed), for which the “peptide stability on addition of myristoyl group” value in data set [1] is given as “without affecting peptide stability”.
Take “Myr-4×4MyDI: 4×4MyDI backbone cyclic peptide with a myristoyl group (formula V) (Myristoyl-[Nlys]RDVL[Nlys]GT; bridge 1-6 via CO)”: in data set [2], the “MyD88 dimerization (Flag-MyD88 co-precipitated with HA-MyD88)” value is on record as “at least as active as 4×4MyDI”. For the same compound, the “proliferation of OCI-Ly3 cells” value in data set [3] is “specifically blocked proliferation”. The “block of NFkB activation” value in data set [4] was “greater activity than the 4×4MyDI”.

The record behind these values is patent publication US10662225B2, “Backbone cyclized inhibitory peptides of myeloid differentiation factor 88 (MyD88)” (Yissum Research Development Company of the Hebrew …, priority 2016, dated 2020).
